Reference: patent US20260207614A1, “IRAK4 DEGRADERS AND USES THEREOF” (Kymera Therapeutics, Inc., priority 2022, published 2026)
“Also recorded” adds a separate entry of the source. Like-named read-outs stand apart in the source and are kept apart here.

Key:
[1] = Phase 1 MAD plasma PK in healthy volunteers; assay type: in vivo, human; settings: human, plasma, oral; for AUC: Day 14, geometric mean (% CV), read-out: AUC24; for Tmax: Day 14, median (range); for Cmax: Day 14 steady state, geometric mean (% CV)
Protocol: The selection of Compound A doses will be guided by the safety, tolerability, and PK data in humans from the SAD portion of the study. […] Increasing dose levels in subsequent MAD cohorts will be identified based on the safety and PK observed in the previous SAD and MAD cohorts. Dose escalation between each MAD cohort will not exceed 100%.
However, the dosing interval and the duration of dosing may change following review of the safety, PK, and PD data from Part A.
A MAD5 cohort was added including five twice-weekly doses of 200 mg.
Geometric Mean (% CV) reported for all parameters, except tmax where median (range) are presented. Accumulation Ratio represents fold change in exposure from Day 1 to Day 14.

[2] = system: patients with hidradenitis suppurativa (HS); test: Phase 1 Part C clinical efficacy in hidradenitis suppurativa; assay type: in vivo, human; settings: for ΔAN Count / ΔPain NRS / ΔPeak Pruritis NRS / Responders: AN Count 0/1/2 / Responders: HiSCR50 / Responders: HiSCR75 / Responders: Pain NRS30: HS; for ΔAN Count: deepest reduction across Days 28 through 42; for ΔPain NRS / ΔPeak Pruritis NRS: deepest reduction, past week; for Responders: AN Count 0/1/2 / Responders: HiSCR50 / Responders: HiSCR75 / Responders: Pain NRS30: highest response across Days 28 through 42
Text: (§1) Baseline Characteristics and Disposition: A total of 21 patients were enrolled in the trial, including 13 HS and 8 AD patients, with median age 31-40 years (13 female, 8 male). Disease severity for HS was moderate (10), severe (1) and very severe (2) and for AD was mild (1), moderate (5) and severe (2). One HS and 1 AD patient withdrew from treatment early due to personal reasons, resulting in 12 HS and 7 AD patients evaluable for PD and clinical efficacy.
HS clinical endpoints collected in the study included AN count, Pain NRS. Pruritus NRS and HS-PGA. […] Analyses were done for all patients, including very severe (n=12), and for patients with only moderate to severe disease (n=10).

[3] = In vivo PK studies in rats, dogs and monkeys
Text: In in vivo pharmacokinetic (PK) studies conducted in rats, dogs, and monkeys.

[4] = system: patients with atopic dermatitis (AD); test: Phase 1 Part C clinical efficacy in atopic dermatitis; assay type: in vivo, human
Text: as §1
AD clinical endpoints collected in the study included EASI score, Peak Pruritus NRS and vIGA-AD. Peak Pruritus NRS was used to derive Peak Pruritus NRS responder rate.

IRAK4 = test: In vitro IRAK4 degradation, monkey PBMCs; assay type: cell-based
Phase 1 Part C safety = assay type: in vivo, human
[5] = AD, n = 7, 75 mg QD fed, highest response across Days 28 through 42
[6] = AD, n = 7, deepest reduction across Days 28 through 42

Cn1c(=O)n([C@@H]2CCC(=O)NC2=O)c2cccc(C#CCOC3CCN(C[C@H]4CC[C@H](n5cc(NC(=O)c6cnn7ccc(N8C[C@H]9C[C@@H]8CO9)nc67)c(C(F)F)n5)CC4)CC3)c21 [Compound A, 5-((1R,4R)-2-oxa-5-azabicyclo[2.2.1]heptan-5-yl)-N-(3-(difluoromethyl)-1-((1r,4R)-4-((4-((3-(1-(2,6-dioxopiperidin-3-yl)-3-methyl-2-oxo-2,3-dihydro-1H-benzo[d]imidazol-4-yl)prop-2-yn-1-yl)oxy)piperidin-1-yl)methyl)cyclohexyl)-1H-pyrazol-4-yl)pyrazolo[1,5-a]pyrimidine-3-carboxamide]
AUC ([1]; 100 mg QD): 314 ng·h/mL
Tmax ([1]; 100 mg QD): 8 h
Cmax ([1]; 100 mg QD): 16.1 ng/mL
AUC ([1]; 200 mg QD): 498 ng·h/mL
Tmax ([1]; 200 mg QD): 8 h
Cmax ([1]; 200 mg QD): 25.2 ng/mL
half-life ([1]; healthy volunteers, read-out: half-life, range observed in MAD): 34 to 59 h
disease severity in patient HS-10 ([2]; FIG. 36): from moderate to mild
AN count of 0/1/2 response rate ([2]; HS patients, FIG. 30): 42-50%
AN count reduction ([2]; HS patients, FIG. 30): 46-51%
HiSCR50 response rate ([2]; HS patients, FIG. 31): 42-50%
reduction in Pain NRS ([2]; HS patients, FIG. 32): 49-50%
response rate in Pain NRS30 ([2]; HS patients, FIG. 32): 50-60%
reduction in Peak Pruritus NRS ([2]; HS patients, FIG. 33): 62-68%
ΔAN Count ([2]; All Patients (n = 12)): −46%
ΔPain NRS ([2]; All Patients (n = 12)): −49%
ΔPeak Pruritis NRS ([2]; All Patients (n = 12)): −62%
Responders: AN Count 0/1/2 ([2]; All Patients (n = 12)): 42%
Responders: HiSCR50 ([2]; All Patients (n = 12)): 42%
Responders: HiSCR75 ([2]; All Patients (n = 12)): 25%
Responders: Pain NRS30 ([2]; All Patients (n = 12)): 50%
ΔAN Count ([2]; Moderate/Severe (n = 10)): −51%
ΔPain NRS ([2]; Moderate/Severe (n = 10)): −55%
ΔPeak Pruritis NRS ([2]; Moderate/Severe (n = 10)): −68%
Responders: AN Count 0/1/2 ([2]; Moderate/Severe (n = 10)): 50%
Responders: HiSCR50 ([2]; Moderate/Severe (n = 10)): 50%
Responders: HiSCR75 ([2]; Moderate/Severe (n = 10)): 50%
Responders: Pain NRS30 ([2]; Moderate/Severe (n = 10)): 60%
HS-PGA scores ([2]; all HS patients): stable or improved (5 of 12)
lesions and symptoms in patient HS-3 ([2]; moderate disease at baseline, FIG. 35): complete clearing of lesions and symptoms
bioavailability [3]: low to moderate
clearance [3]: moderate to high
terminal half-life [3]: moderate
volume of distribution at steady state [3]: high
EASI score reduction ([4]; AD patients, FIG. 26): up to 37%
Peak Pruritus NRS reduction ([4]; AD patients, FIG. 27): 52-63%
Peak pruritus NRS Responder rate ([4]; AD patients, FIG. 27): 57-71%
Responders: Peak Pruritis NRS, Past 24 Hours [4, 5]: 71%
Responders: Peak Pruritis NRS, Past Week [4, 5]: 57%
ΔEASI [4, 6]: −37%
ΔPeak Pruritis NRS, Past 24 Hours [4, 6]: −63%
ΔPeak Pruritis NRS, Past Week [4, 6]: −52%
disease severity in patient AD-3 ([4]; FIG. 29): from severe to mild
vIGA-AD (IGA scores) ([4]; all AD patients): stable or improved (2 of 7)
course of QTc prolongation with continued dosing (Phase 1 Part C safety): resolution to baseline by Day 28; also recorded: spontaneously resolved to baseline by Day 28
serious adverse events (Phase 1 Part C safety): no serious adverse events
severity of adverse events (headache, fatigue, diarrhea) (Phase 1 Part C safety): predominantly mild
safety and tolerability (Phase 1 Part C safety; 75 mg QD fed, 28 days, HS/AD patients): generally safe and well-tolerated
QTcF prolongation (Phase 1 Part C safety; Days 7-14): modest, non-adverse QTcF prolongation
